Patent publication US20230058623A1, “NOVEL HETEROARYL-TRIAZOLE COMPOUNDS AS PESTICIDES” (Bayer Aktiengesellschaft, priority 2019, published 2023)

Key:
Format in all cases: in vivo
[1] = tested on: larvae of the southern green stink bug (Nezara viridula); experiment: Nezara viridula spray test; conditions: 96 h, application rate 100 g/ha, after 4 days, barley plants
Summary of the method: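 Barley plants sprayed with the active compound in emulsifier-containing water, then infested with stink bug larvae. Mortality scored in % after 4 days, with 100% meaning all insects killed.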

[2] = tested on: fall armyworm larvae (Spodoptera frugiperda); experiment: Spodoptera frugiperda spray test; conditions: 168 h, application rate 100 g/ha, after 7 days, maize leaf sections
Summary of the method: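 Percent larval kill read at day 7 on Zea mays leaf pieces that were spray-treated and, after drying, infested. Spray preparations made by dilution with emulsifier-containing water (1000 ppm).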

[3] = tested on: adult engorged female ticks (Rhipicephalus microplus); experiment: Rhipicephalus (Boophilus) microplus injection test; conditions: 168 h, application rate 4 μg/tick, egg deposition after 7 days, read-out: activity (efficacy: infertile eggs)
Summary of the method: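 Compound in DMSO (10 mg per 0.5 mL, then diluted with DMSO to test concentration); 1 μL injected into the abdomen of each of five engorged females, then held in a climate chamber. Fertile egg deposition checked at 7 days; efficacy 100% = all eggs infertile, 0% = all fertile.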

[4] = tested on: green peach aphid (Myzus persicae); experiment: Myzus persicae oral test; conditions: 120 h, read-out: activity (mortality)
Summary of the method: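 Readout: % mortality at day 5, where 100% = all aphids dead and 0% = none dead. Feeding via parafilm membrane over compound in IPL41 medium (33%+15% sugar); mixed-age population. Stock in acetone (1:100 w/w), water-diluted.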

[5] = tested on: green peach aphid (Myzus persicae); experiment: Myzus persicae spray test; conditions: foliar, 120 h, application rate 100 g/ha, after 5 days, Chinese cabbage leaf disks, read-out: activity (mortality)
Summary of the method: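 Percent kill was recorded 5 days after spraying. Test solutions, prepared with solvent and diluted in 1000 ppm emulsifier water, were applied to Brassica pekinensis leaf disks carrying mixed-instar green peach aphids.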

[6] = tested on: adult mosquitoes Aedes aegypti strain MONHEIM; experiment: Aedes aegypti test (AEDSAE surface treatment & contact assay); conditions: surface concentration 20 mg/m^2, exposure 30 minutes, 24 hours after contact, read-out: efficacy (mortality)
Summary of the method: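 Compound in acetone (2 mg/ml) with 2000 ppm RME dried onto glazed tile; adults exposed to the treated surface for 30 min. Percent mortality scored 24 h after contact.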

[7] = tested on: adult unfed cat fleas (Ctenocephalides felis); experiment: Ctenocephalides felis oral test; conditions: 48 h, read-out: activity (mortality)
Summary of the method: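 About 20 adult unfed cat fleas fed through parafilm on citrated cattle blood containing compound (from a DMSO concentrate). Blood held at 37° C, fleas at room temperature. Mortality in % scored after 2 days.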

[8] = tested on: larvae of the banded cucumber beetle (Diabrotica balteata); experiment: Diabrotica balteata spray test; conditions: 168 h, application rate 100 g/ha (=32 μg/well), after 7 days, wheat seeds, read-out: activity (efficacy: seedlings grown)
Summary of the method: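 Efficacy (%) read 7 days after infesting treated seedlings with 10-20 banded cucumber beetle larvae, 100% meaning growth as in uninfected untreated control and 0% no growth. Test solutions in water containing 1000 ppm emulsifier were sprayed onto wheat seeds germinated for 1 day on agar.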

[9] = tested on: adult cat fleas (Ctenocephalides felis); experiment: Ctenocephalides felis in-vitro contact test, adult cat flea; conditions: application rate 5 μg/cm^2 (=500 g/ha), after 48 hours, read-out: activity (efficacy: fleas dead or moribund)
Summary of the method: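 After 48 h of room-temperature exposure in tubes whose walls carried dried compound residue (5 μg/cm^2, from 900 ppm acetone solution), adult cat fleas (5-10 per tube) were heat-challenged at 45-50° C up to 5 min. Fleas unable to climb away were counted dead or moribund, expressed as % efficacy.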

With `C[C@@H]1CN(C(=O)c2ccc(-n3ncnc3[C@H](C)NC(=O)c3cc(C(F)(F)F)cc(C(F)(F)F)c3)nc2)C[C@@H](C)O1` [Example I-46] as the compound, how does the mortality at 100 g/ha [1] read?
The mortality at 100 g/ha was 100%.

And the mortality at 100 g/ha [2]?
Its mortality at 100 g/ha is 100%.

What about the pest or weed control at 0.004 mg [3] of the same compound?
The pest or weed control at 0.004 mg was 100%.

What about the mortality at 4 ppm [4] of the same compound?
The mortality at 4 ppm was 100%.

And the mortality at 100 g/ha [5]?
Its mortality at 100 g/ha is 90%.

And the mortality at 20 mg/m2 [6]?
Its mortality at 20 mg/m2 is 80 to 100%.

What about the mortality at 100 ppm [7] of the same compound?
The mortality at 100 ppm was 100%.

What about the pest or weed control at 32 µg/disc, 100 g/ha [8] of the same compound?
The pest or weed control at 32 µg/disc, 100 g/ha was 100%.

And the pest or weed control at 5 µg/cm2 [9]?
The pest or weed control at 5 µg/cm2 was 100%.

Which mortality at 100 g/ha [1] does the source give for `Cc1nc([C@H](C)NC(=O)c2cc(C(F)(F)F)cc(C(F)(F)F)c2)n(-c2ccc(C(=O)N3C[C@@H](C)O[C@@H](C)C3)cn2)n1` [Example I-45] here?
The mortality at 100 g/ha was 100%.

What about the mortality at 100 g/ha [2] of the same compound?
The mortality at 100 g/ha was 100%.

What about the pest or weed control at 0.004 mg [3] of the same compound?
Its pest or weed control at 0.004 mg is 100%.

And the mortality at 4 ppm [4]?
The mortality at 4 ppm was 100%.

What about the mortality at 100 g/ha [5] of the same compound?
Its mortality at 100 g/ha is 100%.

What about the mortality at 20 mg/m2 [6] of the same compound?
Its mortality at 20 mg/m2 is 80 to 100%.

And the mortality at 100 ppm [7]?
Its mortality at 100 ppm is 100%.

And the pest or weed control at 32 µg/disc, 100 g/ha [8]?
Its pest or weed control at 32 µg/disc, 100 g/ha is 100%.

And the pest or weed control at 5 µg/cm2 [9]?
Its pest or weed control at 5 µg/cm2 is 100%.
